From patent US3941882A, “Rodenticidal imidazo-pyridines” (priority 1974, dated 1976)
Entries after “also recorded” stand apart in the source; their conditions may differ.

Legend:
rats (Rattus norvegicus) = assay: Rodenticidal effect in rats fed treated diet (Table I); format: in vivo, Spraque-Dawley albino strain, male; conditions: per rat
Text: A quantity of a standard animal feed of the following composition: Ingredients Percent Lbs./Ton ______________________________________ Corn, Yellow, Ground 42.275 845.5 Oats, Ground 10.0 200.0 Wheat Middlings 10.0 200.0 Soybean Oil Meal, Solvent Extracted Dehulled, 50 % 18.0 360.0 Skimmed Milk, Dried 5.0 100.0 Corn, Distillers Dried Solubles 2.5 50.0 Alfalfa Meal, Dehydrated, 17 % 2.5 50.0 Whey, Whole Dried 1.0 20.0 Fish Meal with Solubles 4.0 80.0 Animal Fat, Beef Tallow 2.0 40.0 Dicalcium Phosphate, Feed Grade 0.5 10.0 Calcium Carbonate 1.0 20.0 Salt 0.3 6.0 Trace Mineral Premix AN-03 0.2 4.0 Vitamin Premix CK-1 0.5 10.0 Vitamin E Premix 0.1 2.0 Methionine Hydroxy Analog (HYDAN) 0.125 2.5 Total 100.00 2000.0 ______________________________________
was divided into two portions. To each portion, there was added an amount of 1-methoxy-6-chloro-2-heptafluoro-n-propyl-1H-imidazo(4,5-b)pyridine, so that one portion contained 800 ppm of the compound, and the other portion contained 200 ppm of the compound.
Other modified feeds were prepared as described above but containing, in lieu of the compound identified above, 1-methoxy-6-bromo-2-heptafluoro-n-propyl-1H-imidazo(4,5-b)pyridine, 6-chloro-2-pentafluoroethyl-1H-imidazo(4,5-)pyridine, or 1-methoxy-6-chloro-2-heptafluoroisopropyl-1H-imidazo(4,5-b)pyridine, in the same or other concentrations,
EXAMPLES 2-28 Representative compounds were evaluated for rodenticidal effect in rats (Rattus norvegicus, Spraque-Dawley albino strain, male, each weighing 50-60 grams). Each compound to be evaluated was formulated as described in Example 1. Control rats were maintained on the standard animal feed described in Example 1. Control rats and rats to be treated were randomly assigned. Each group contained 5 or 6 rats. Feeding of the respective diet was ad libitum. Consumption per rat per day was checked, except on weekend days, and the rats were weighed and usually necropsied at death or termination of the experiment (generally, day 10).
In the evaluation of several of the compounds, the rats were observed closely to determine the day of death. Death occurred on the day marked by "X"; where no "X" is marked, the rat was found dead on the morning following the last indicated feeding. For the remaining compounds, no such close observation was made, and the rat was found dead on the morning following the last indicated feeding. Generally, the rats were not observed or feed consumption determined on weekend days.

[1] = tested on: whole blood clotting time; assay: Prolongation of whole blood clotting time in female rats (Table II); format: in vivo, Rattus norvegicus, Sprague-Dawley strain; conditions: 0.06 % in diet
Method: 1-Hydroxy-6-chloro-2-pentafluoroethyl-1H-imidazo(4,5-b)-pyridine was evaluated for prolongation of clotting time. The experiment was conducted in female rats (Rattus norvegicus, Sprague-Dawley strain) using a standard laboratory diet. A group of four control rats was fed the unmodified diet and another group of four rats was fed a treated diet, the standard laboratory diet modified by the incorporation therein of 0.06 percent of the 1-hydroxy-6-chloro-2-pentafluoroethyl-1H-imidazo(4,5-b)pyridine.
On the sixth day of feeding, a blood sample was taken from each rat and was analyzed for whole blood clotting time. The analysis was carried out on a BBL Fibrometer Precision Coagulation Timer, produced by BBL Fibrometer, a Division of Becton, Dickinson and Co., Canada, Ltd.; at Mississauga, Ontario. Two analyses were made of each sample.

[2] = tested on: rat population (Rattus norwegius); assay: Field trial against a rat population; format: in vivo; conditions: 100 ppm in feed
Method: A field trial was conducted to evaluate the efficacy of 1-methoxy-5,6-dichloro-2-heptafluoro-n-propyl-1H-imidazo(4,5-b)-pyridine. The trial was conducted in an area of waste ground covered by grass and brush and recently cut off, by construction activity, from a nearby abandoned stockyard. The trial area indicated the presence of a rat population; this was confirmed by supplying to the area a conventional pelleted hog feed. It was consumed steadily at the rate of 8 lbs./day, corresponding to a population of about 145 rats consuming an average of 25 g. of feed/day. After the conventional feed had been supplied for three weeks, the trial period began. The rat species was believed to be Rattus norwegius, and this was later confirmed upon recovery of the dead animals.
During the trial period, the conventional feed was replaced by an adequate supply of a modified feed, which was identical to the conventional feed except that it contained 100 ppm (0.01 percent) of 1-methoxy-5,6-dichloro-2-heptafluoro-n-propyl-1H-imidazo(4,5-b)pyridine.
Food consumption was estimated visually and was as follows, counting the initiation of the trial period as the first day: […]

prothrombin time = assay: Prothrombin time in male rats (Tables III and IV); format: in vivo, rats (Harlan albino strain); conditions: group of 5 rats; for Deaths / Range of Prothrombin Time: five days
Method: Representative compounds were evaluated for prothrombin time in standard laboratory male rats (Harlan albino strain) of weanling age. A standard laboratory animal diet was fed to one group of 5 rats to serve as a control; other groups of 5 rats received modified diets, each diet being the standard laboratory animal diet modified by the incorporation therein of 0.08 percent of the respective compound. Feeding was continued for five days, at which time a blood sample was taken from each rat and analyzed for prothrombin time. The analytical method was that of A. J. Quick, "The Determination of Prothrombin," 190 Am. J. Med. Sci. 501 (1935): and it was performed on the "Electra 600", a machine available from the Medical Laboratory Automation, Inc. The results are reported in Table III.
Additional evaluations of the effect of representative compounds of prothrombin time were conducted. The procedures were the same as those reported in Examples 30-33 except that the concentration of the respective compound was 0.02 percent.

In the case of `COCOn1c(C(F)(F)F)nc2ncc(Cl)cc21` [1-(methoxymethoxy)-6-chloro-2-trifluoromethyl-1H-imidazo(4,5-b)pyridine], the Weight change (rats (Rattus norvegicus); 700 ppm in diet) is reported as “+13 grams”.

`C=CCOn1c(C(F)(F)C(F)F)nc2nc(Cl)c(Cl)cc21` [1-allyloxy-5,6-dichloro-2-(1,1,2,2-tetrafluoroethyl)-1H-imidazo(4,5-b)pyridine] gave a Weight change (rats (Rattus norvegicus); 100 ppm in diet) of 0 grams.

For `O=C(C=Cc1ccccc1)On1c(C(F)(F)F)nc2ncc(Cl)cc21` [1-cinnamoyloxy-6-chloro-2-trifluoromethyl-1H-imidazo(4,5-b)pyridine], the Necropsy results (rats (Rattus norvegicus); 1000 ppm in diet) was “SH, IH”.

In the case of `On1c(C(F)(F)C(F)(F)F)nc2ncc(Cl)cc21` [1-hydroxy-6-chloro-2-pentafluoroethyl-1H-imidazo(4,5-b)pyridine], the “Death during clotting time study” value ([1]; per animal) is reported as “died on day 5; also recorded: died on day 6” and the “Whole Blood Clotting Time” value ([1]; sixth day of feeding, two analyses per sample) is reported as over 600 s.

Molecule `CC(C)On1c(C(F)(F)F)nc2nc(Cl)c(Cl)cc21` [1-isopropoxy-5,6-dichloro-2-trifluoromethyl-1H-imidazo(4,5-b)pyridine] has a Weight change (rats (Rattus norvegicus); 200 ppm in diet) of 0 grams.

For `COn1c(C(F)(F)C(F)(F)C(F)(F)F)nc2nc(Cl)c(Cl)cc21` [1-methoxy-5,6-dichloro-2-heptafluoro-n-propyl-1H-imidazo(4,5-b)pyridine], the Bait shyness [2] was “no bait shyness”, the “Eradication of rodents from the trial area” value [2] was “essentially complete eradication of rodents from the trial area” and the “First day rat corpses were found” value [2] was 4 days. The Necropsy of corpses ([2]; 31 of 40 corpses necropsied) was “uniformly showed internal hemorrhage, generally of the intestines” and the Corpses found ([2]; total) was 40 corpses.

For `COn1c(C(F)(F)F)nc2nc(Cl)c(Cl)cc21` [1-methoxy-5,6-dichloro-2-trifluoromethyl-1H-imidazo(4,5-b)pyridine], the Weight change (rats (Rattus norvegicus); 200 ppm in diet) was -12 grams.

For `COn1c(C(F)(F)F)nc2nc(Cl)ccc21` [1-methoxy-5-chloro-2-trifluoromethyl-1H-imidazo(4,5-b)pyridine], the Weight change (rats (Rattus norvegicus); 800 ppm in diet) was -11 grams.

For `COn1c(C(F)(F)C(F)(F)C(F)(F)F)nc2ncc(Br)cc21` [1-methoxy-6-bromo-2-heptafluoro-n-propyl-1H-imidazo(4,5-b)pyridine], the Necropsy results (rats (Rattus norvegicus); 200 ppm in diet) was “LH, IH”.

In the case of `COn1c(C(F)(F)C(F)(F)C(F)(F)F)nc2ncc(Cl)cc21` [1-methoxy-6-chloro-2-heptafluoro-n-propyl-1H-imidazo(4,5-b)pyridine], the “Necropsy results (in words)” value (rats (Rattus norvegicus); 200 ppm in diet) is reported as “bloody nose” and the “Necropsy results (in words)” value (rats (Rattus norvegicus); 800 ppm in diet) is reported as “bloody nose”.

In the case of `COn1c(C(F)(C(F)(F)F)C(F)(F)F)nc2ncc(Cl)cc21` [1-methoxy-6-chloro-2-heptafluoroisopropyl-1H-imidazo(4,5-b)pyridine], the Necropsy results (rats (Rattus norvegicus); 200 ppm in diet) is reported as “TH, SH” and the Necropsy results (rats (Rattus norvegicus); 300 ppm in diet) is reported as “AH, TH, SH; also recorded: TH, Test.H”.

With `COn1c(C(F)(F)C(F)(F)F)nc2ncc(Cl)cc21` [1-methoxy-6-chloro-2-pentafluoroethyl-1H-imidazo(4,5-b)pyridine] the Deaths (prothrombin time; 0.02 percent in diet) was “none”, the “Range of Prothrombin Time” value (prothrombin time; 0.02 percent in diet) was 53.1 to 90.5 s and the Deaths (prothrombin time; 0.08 percent in diet) was 3. For the same molecule, the “Range of Prothrombin Time” value (prothrombin time; 0.08 percent in diet) was 180 to 200 s and the “Day(s) of deaths” value (prothrombin time; 0.08 percent in diet) was 170000 to 350000 s.

For `CNC(=O)On1c(C(F)(F)F)nc2ncc(Cl)cc21` [1-methylcarbamoyloxy-6-chloro-2-trifluoromethyl-1H-imidazo(4,5-b)pyridine], the Deaths (prothrombin time; 0.02 percent in diet) was “none”, the “Range of Prothrombin Time” value (prothrombin time; 0.02 percent in diet) was 17.6 to 22.1 s and the Deaths (prothrombin time; 0.08 percent in diet) was “none”. The “Range of Prothrombin Time” value (prothrombin time; 0.08 percent in diet) was 39.6 to 98.6 s.

For `CC(C)(C)C(=O)On1c(C(F)(F)F)nc2ncc(Cl)cc21` [1-pivaloyloxy-6-chloro-2-trifluoromethyl-1H-imidazo(4,5-b)pyridine], the Necropsy results (rats (Rattus norvegicus); 750 ppm in diet) was “TH, IH; also recorded: NH, IH” and the Necropsy results (rats (Rattus norvegicus); 1500 ppm in diet) was “NH, IH”.

In the case of `FC(F)(F)c1nc2nc(Cl)c(Cl)cc2[nH]1` [5,6-dichloro-2-trifluoromethyl-1H-imidazo(4,5-b)pyridine], the Weight change (rats (Rattus norvegicus); 50 ppm in diet) is reported as “+13 grams”.

In the case of `FC(F)C(F)(F)c1nc2ncc(Cl)cc2[nH]1` [6-chloro-2-(1,1,2,2-tetrafluoroethyl)-1H-imidazo(4,5-b)pyridine], the Necropsy results (rats (Rattus norvegicus); 150 ppm in diet) is reported as “TH, SIH; also recorded: NH, IH”.

With `FC(F)(F)c1nc2ncc(Cl)cc2[nH]1` [6-chloro-2-trifluoromethyl-1H-imidazo(4,5-b)pyridine] the Deaths (prothrombin time; 0.02 percent in diet) was “none”, the Deaths (prothrombin time; 0.08 percent in diet) was 5 and the “Day(s) of deaths” value (prothrombin time; 0.08 percent in diet) was “three”.
